# In patent US11207271B2, “Mazindol IR/SR multilayer tablet and its use for the treatment of attention deficit/hyperactivity disorder (ADHD)” (NLS-1 Pharma AG, priority 2016, dated 2021):
# Experiments:
# [1] = Pharmacokinetics of immediate-release mazindol after oral administration; assay type: in vivo, human; details: immediate release formulation; from half-life
# Procedure: In U.S. Pat. No. 8,293,779, it is disclosed that, after single or repeated oral administration, mazindol is absorbed with a time to maximum concentrations (Tmax) of 2-4 hours.
# Such immediate release compositions thus require twice daily administration, which limits compliance in the special case of children of school age, as the second administration is often requested to be done at midday, i.e. during school time. Even given the fact that the immediate release tablet undergoes complete in vitro dissolution within 1 hour, the time to maximum concentrations (Tmax) occurs at 3-4 hours after drug administration in healthy volunteers (Kim 2009). Rapid initial absorption will allow the earlier achievement of adequate systemic exposure to achieve desired efficacy (e.g., administer early and have onset of efficacy 1-2 hours later, when patient is at school or work).
# [2] = In vitro TIM gastrointestinal system, fasted vs fed; assay type: in vitro ADME, human; details: formulated according to the invention
# From the text: As discussed, this is particularly beneficial for ADHD patients, for this initial amount of mazindol provided increases patients' mental alertness and acuity at the start of their day (e.g., driving to work, starting school).
# [3] = cited from earlier work
# [4] = animal toxicology studies; cited from earlier work
# [5] = cited from earlier work; remark: listed apart in the source
# [6] = clinical pharmacokinetic studies; cited from earlier work
structure (smiles),measurement,setting,value
"OC1(c2ccc(Cl)cc2)c2ccccc2C2=NCCN21 (centres unmarked) [mazindol, 5-(4-chlorophenyl)-2,5-dihydro-3H-imadazo[2,1-a]isoindol-5-ol]",time to reach steady-state concentrations,[1],30 to 55 h
same,Tmax in the fed state compared to the fasted state,[2],"delayed, compared to the fasted state, by one hour or more"
same,dose dependence of pharmacokinetics,"[3]; doses between 1 mg/day and 4 mg/day, immediate-release formulations",linear (independent of the dose)
same,time to maximum concentrations (Tmax),"[3]; single or repeated oral administration, U.S. Pat. No. 8,293,779",2 to 4 h
same,carcinogenic effect,[4],no carcinogenic effect
same,mutagenic effect,[4],no mutagenic effect
same,toxic potential,[4],very low
same,toxicology effect in reproduction,[4],no toxicology effect in reproduction
same,hydrolytic stability,"[5]; moderate temperatures, water / neutral and alkaline aqueous solutions, human plasma",undergoes hydrolysis at moderate temperatures with minimal amount of water
same,solubility as function of pH,"[5]; most soluble at stomach pH, least in the colon",decreases with increasing pH
same,absorption in the colon,[6],not likely to be absorbed in the colon
